pIC50: −log10 of the molar value. Read-outs that look alike come from different tables or passages of the source.
How the values were obtained:
P. falciparum NF54 = assay: Antiplasmodial assay (3H-hypoxanthine incorporation); type: cell-based, Plasmodium falciparum; settings: erythrocytic stages, 48 h drug exposure + 24 h with 3H-hypoxanthine
Method: (§1) Serial dilution assays with 11 dilution steps in 96-well plates were used in order to determine the IC50 values of the generated aurachin D analogs against P. falciparum NF54 (erythrocytic stages), T. brucei rhodesiense STIB 900 (bloodstream forms), T. cruzi Tulahuen C4 (intracellular amastigotes) and L. donovani MHOM-ET-67/L82 (axenic amastigotes). Potential cytotoxic effects were evaluated with L6 myoblast cells (Table 2).
Antiplasmodial activity was determined against the NF54 strain of Plasmodium falciparum using a modified ^3H-hypoxanthine incorporation assay. Briefly, infected erythrocytes were exposed to serial drug dilutions in microtiter plates for 48 h at 37 °C in a gas mixture with reduced oxygen and elevated carbon dioxide concentrations. ^3H hypoxanthine was added to each well, and after further incubation for 24 h, the wells were harvested on glass fiber filters and counted in a liquid scintillation counter. From the sigmoidal inhibition curve, the IC50 value was calculated. Chloroquine was used as positive control in each test series.

[1] = test system: T. brucei rhodesiense STIB 900; assay: Antitrypanosomal assay T. brucei rhodesiense (resazurin viability); type: cell-based, Trypanosoma brucei rhodesiense; settings: read-out: IC50 T. brucei rhodesiense STIB 900
Method: as §1
Activity against Trypanosoma brucei rhodesiense (strain STIB 900) was evaluated according to a previously established protocol. Parasites were grown axenically in culture medium supplemented with horse serum. Following a 3-day exposure to test compounds, the viability of tryptomastigote parasites was quantified using the dye resazurin by monitoring the reductive environment of living cells. Fluorescence development was expressed as percentage of the control, and IC50 values were calculated. Melarsoprol was included as positive control.

T. cruzi Tulahuen C4 = assay: Antitrypanosomal assay T. cruzi (beta-galactosidase reporter strain on rat skeletal myoblasts); type: cell-based, Trypanosoma cruzi; settings: intracellular amastigotes, 4 days on rat skeletal myoblasts
Method: as §1
Activity against Trypanosoma cruzi was evaluated according to a procedure described by Buckner and coworkers. The strain Tulahuen C4 of T. cruzi, which had been transfected with the β-galactosidase lacZ gene, was cultivated for 4 days on rat skeletal myoblasts (5% CO2, 37 °C) in the presence of drug. For measurement of the IC50, the substrate chlorophenol red-β-D-galactopyranoside was added. The color reaction that developed during the following 2–4 h was quantified photometrically employing an ELISA reader. Benznidazole was included in each test series as positive control.

[2] = test system: L. donovani MHOM-ET-67/L82; assay: Antileishmanial assay (axenic amastigotes, resazurin viability); type: cell-based, Leishmania donovani; settings: 3-day exposure, pH 5.4
Method: Serial dilution assays with 11 dilution steps in 96-well plates were used in order to determine the IC50 values of the generated aurachin D analogs against P. falciparum NF54 (erythrocytic stages), T. brucei rhodesiense STIB 900 (bloodstream forms), T. cruzi Tulahuen C4 (intracellular amastigotes) and L. donovani MHOM-ET-67/L82 (axenic amastigotes). Potential cytotoxic effects were evaluated with L6 myoblast cells (Table 2). Evaluation of antileishmanial activity was carried out with axenically grown amastigotes of Leishmania donovani MHOM-ET-67/L82, as previously described. For this, the amastigotes were cultured at 37 °C and pH 5.4 in SM medium supplemented with 10% heat-inactivated fetal bovine serum under an atmosphere of 5% CO2 in air. Following a 3-day exposure to test compounds, the viability of amastigote parasites was quantified using the dye resazurin by monitoring the reductive environment of living cells. Fluorescence development was expressed as percentage of the control, and IC50 values were calculated. Miltefosine was used as positive control.

Rat Myoblast L6 Cells = assay: Cytotoxicity assay with L6 cells (resazurin viability); type: cell-based
Method: as §1
Cytotoxicity was tested with L6 cells (ATCC CRL-1458), a […] cell line derived from rat skeletal myoblasts, as previously described. For this, L6 cells were grown in culture medium supplemented with heat-inactivated fetal bovine serum under an atmosphere of 5% CO2 in air. Following a 3-day exposure to test compounds, the viability of L6 cells was quantified using the dye resazurin by monitoring the reductive environment of living cells. Fluorescence development was expressed as percentage of the control, and IC50 values were calculated. Podophyllotoxin was used as reference.

[3] = bloodstream forms, 3-day exposure
[4] = cytotoxicity, 3-day exposure, read-out: IC50 Rat Myoblast L6 Cells
[5] = Plasmodium falciparum, NF54, 72 h
[6] = Trypanosoma brucei, 72 h, bloodstream forms, 3-day exposure
[7] = Trypanosoma cruzi, TULAHUEN, Myoblast, 96 h
[8] = Rattus norvegicus, L6, 72 h, cytotoxicity, 3-day exposure, read-out: IC50 Rat Myoblast L6 Cells

| Structure (SMILES) | pIC50 (P. falciparum NF54) | pIC50 [1, 3] | pIC50 (T. cruzi Tulahuen C4) | pIC50 [2] | pIC50 (Rat Myoblast L6 Cells; [4]) | also measured |
| --- | --- | --- | --- | --- | --- | --- |
| CC(C)=CCC/C(C)=C/CC/C(C)=C/Cc1c(C)[nH]c2cc(Cl)ccc2c1=O [Compound 9, 7-Chloro aurachin D] | 7.15 | 3.98 | 4.38 | 5.04 | 4.26 | – |
| CC(C)=CCC/C(C)=C/CC/C(C)=C/Cc1c(C)[nH]c2ccccc2c1=O [Compound 1, aurachin D] | – | – | – | – | – | pIC50 (P. falciparum NF54; [5]): 7.92; pIC50 [1, 6]: 5.35; pIC50 (T. cruzi Tulahuen C4; [7]): 5.89; pIC50 ([2]; Leishmania donovani, 72 h): 7.36; pIC50 (Rat Myoblast L6 Cells; [8]): 3.88; pIC50 (Rat Myoblast L6 Cells; Rattus norvegicus, L6, cytotoxicity, read-out: IC50 rat skeletal myoblasts): 3.88 |
| CC(C)=CCC/C(C)=C/CC/C(C)=C/Cc1c(C)[nH]c2ccc(Br)cc2c1=O [Compound 10, 6-Bromo aurachin D] | 6.92 | 4.40 | 4.65 | 4.86 | 3.97 | – |
| COc1cc([C@@H]2c3cc4c(cc3[C@H](O)[C@H]3COC(=O)[C@H]23)OCO4)cc(OC)c1OC [Podophyllotoxin, reference compound] | – | – | – | – | – | pIC50 (Rat Myoblast L6 Cells; Rattus norvegicus, L6, 72 h, read-out: IC50 Rat Myoblast L6 Cells): 7.66 |
| Nc1nc(N)nc(Nc2ccc([As]3SCC(CO)S3)cc2)n1 (stereo not shown) [Melarsoprol, reference compound] | – | – | – | – | – | pIC50 ([1]; Trypanosoma brucei, 72 h): 7.89 |
| O=C(Cn1ccnc1[N+](=O)[O-])NCc1ccccc1 [Benznidazole, reference compound] | – | – | – | – | – | pIC50 (T. cruzi Tulahuen C4; [7]): 5.60 |
| CC(C)=CCC/C(C)=C/CC/C(C)=C/Cc1c(C)[nH]c2ccc(Cl)cc2c1=O [Compound 8, 6-Chloro aurachin D] | 7.68 | 4.43 | 4.95 | 5.21 | 3.93 | – |
| COc1ccc2[nH]c(C)c(C/C=C(\C)CC/C=C(\C)CCC=C(C)C)c(=O)c2c1 [Compound 5, 6-Methoxy aurachin D] | 6.06 | 4.39 | 4.71 | 5.14 | 3.93 | – |
| CC(C)=CCC/C(C)=C/CC/C(C)=C/Cc1c(C)[nH]c2cc(C)ccc2c1=O [Compound 4, 7-Methyl aurachin D] | – | – | – | – | – | pIC50 (P. falciparum NF54; [5]): 8.15; pIC50 [1, 6]: 3.79; pIC50 (T. cruzi Tulahuen C4; [7]): 4.34; pIC50 ([2]; Leishmania donovani, 72 h): 5.04; pIC50 (Rat Myoblast L6 Cells; [8]): 4.19 |
| CC(C)=CCC/C(C)=C/CC/C(C)=C/Cc1c(C)[nH]c2ccc(F)cc2c1=O [Compound 7, 6-Fluoro aurachin D] | 7.21 | 4.43 | 5.74 | 6.21 | 3.90 | – |
| COc1ccc2c(=O)c(C/C=C(\C)CC/C=C(\C)CCC=C(C)C)c(C)[nH]c2c1 [Compound 6, 7-Methoxy aurachin D] | 7.05 | 4.35 | 4.66 | 4.77 | 4.09 | – |
| CC(C)=CCC/C(C)=C/CC/C(C)=C/Cc1c(C)[nH]c2ccc(C)cc2c1=O [Compound 3, 6-Methyl aurachin D] | 6.29 | 4.36 | 5.12 | 5.37 | 4.73 | – |
| CCCCCCCCCCCCCCCCOP(=O)([O-])OCC[N+](C)(C)C [Miltefosine, reference compound] | – | – | – | – | – | pIC50 ([2]; Leishmania donovani, 72 h): 6.14 |
| CC(C)=CCC/C(C)=C/CC/C(C)=C/Cc1c[nH]c2ccccc2c1=O [Compound 2, 2-Desmethyl aurachin D] | 8.22 | 5.02 | 5.62 | 5.82 | 4.69 | – |

Source: paper PMC9919615, “Generation of Aurachin Derivatives by Whole-Cell Biotransformation and Evaluation of Their Antiprotozoal Properties” (Molecules, 2023)
